Test results taken from patent US7319109B2, “Farnesoid X receptor agonists” (Smith Kline Beecham Corporation, priority 2002, dated 2008).

The compounds below were run against T1, Human FXRα Ligand Binding Domain (FXRα LBD) (Homo sapiens, UniProt Q96RI1) (assay: FXR Affinity Binding Assay: ligand mediated cofactor peptide (SRC-1 LCD2, 676-700) interaction, time resolved fluorescence). Settings: FXRα LBD-APC / europium labeled SRC-1 peptide, TRF signal, at least 2 hours at room temperature; read-out: Activity (pEC50) (converted).
T1 construct: polyhistidine (N); made in house; host or cells: E. coli BL21 (DE3), pRSET-A vector
T1 sequence (Q96RI1 222-472 isoform Q96RI1-2): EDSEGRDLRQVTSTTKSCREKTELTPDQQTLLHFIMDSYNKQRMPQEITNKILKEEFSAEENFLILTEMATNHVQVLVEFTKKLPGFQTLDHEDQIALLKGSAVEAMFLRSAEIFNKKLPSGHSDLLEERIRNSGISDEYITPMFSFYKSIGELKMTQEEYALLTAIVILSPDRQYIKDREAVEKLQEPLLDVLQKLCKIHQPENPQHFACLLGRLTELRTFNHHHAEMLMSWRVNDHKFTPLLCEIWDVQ

| Structure (SMILES) | EC50 |
| --- | --- |
| CC(C)c1onc(-c2ccccc2OC(F)(F)F)c1COc1ccc(CN(C)c2cccc(C(=O)O)c2)c(Cl)c1 [Example 97, 3-[[2-Chloro-4-({5-isopropyl-3-[2-(trifluoromethoxy)phenyl]-4-isoxazolyl}methoxy)benzyl](methyl)amino]benzoic acid] | 0.102 to 1 µM |
| CC(C)c1onc(-c2c(Cl)cccc2Cl)c1COc1ccc(COc2ccc(C(=O)O)cc2)c(Cl)c1 [Example 81, 4-[(2-Chloro-4-{[3-(2,6-dichlorophenyl)-5-isopropylisoxazol-4-yl]methoxy}benzyl)oxy]benzoic acid] | < 0.1 µM |
| Cc1cc(OCc2c(-c3c(Cl)cccc3Cl)noc2C(C)C)ccc1N(C)Cc1ccc(C#N)cc1 [Example 9, 4-[(4-{[3-(2,6-Dichlorophenyl)-5-isopropyl-4-isoxazolyl]methoxy}-2-dimethylanilino)methyl]benzonitrile] | 0.102 to 1 µM |
| COC(=O)c1cccc(S(=O)(=O)Nc2ccc(OCc3c(-c4c(Cl)cccc4Cl)noc3C(C)C)cc2)c1 [Example 38, Methyl 3-{[(4-{[3-(2,6-dichlorophenyl)-5-isopropylisoxazol-4yl]methoxy}phenyl)amino]-sulfonyl}benzoate] | 0.102 to 1 µM |
| Cc1cc(OCc2c(-c3c(Cl)cccc3Cl)noc2C(C)C)ccc1N(C)Cc1occc1C(=O)O [Example 10, 2-[(4-{[3-(2,6-Dichlorophenyl)-5-isopropyl-4-isoxazolyl]methoxy}-2-dimethylanilino)methyl]-3-furoic acid] | 0.102 to 1 µM |
| Cc1cc(OCc2c(-c3c(Cl)cccc3Cl)noc2C(C)C)ccc1N(C)Cc1ccc(-c2csnn2)cc1 [Example 8, N-(4-{[3-(2,6-Dichlorophenyl)-5-isopropyl-4-isoxazolyl]methoxy}-2-methylphenyl)-N-methyl-N-[4-(1,2,3-thiadiazol-4-yl)benzyl]amine] | 0.102 to 1 µM |

The remaining lines, values ahead:

| EC50 | Structure (SMILES) |
| --- | --- |
| 0.102 to 1 µM | CC(C)c1onc(-c2c(Cl)cccc2Cl)c1COc1ccc(N(C)C(=O)c2cccc(C(=O)O)c2)c(Cl)c1 [Example 30, 3-[(2-Chloro-4-{[3-(2,6-dichlorophenyl)-5-isopropyl-4-isoxazolyl]methoxy}methylanilino)carbonyl]benzoic acid] |
| < 0.1 µM | Cc1cc(OCc2c(-c3c(Cl)cccc3Cl)noc2C(C)C)ccc1N(C)Cc1cccc(C(=O)O)c1 [Example 1, 3-{[(4-{[3-(2,6-Dichlorophenyl)-5-isopropylisoxazol-4-yl]methoxy}-2-methylphenyl)(methyl)amino]methyl}benzoic acid] |
| 0.102 to 1 µM | Cc1cc(OCc2c(-c3c(Cl)cccc3Cl)noc2C(C)C)ccc1N(C)C(=O)c1cccc(C(=O)O)c1 [Example 29, 3-[(4-{[3-(2,6-Dichlorophenyl)-5-isopropyl-4-isoxazolyl]methoxy}-2-dimethylanilino)carbonyl]benzoic acid] |
| < 0.1 µM | Cc1cc(OCc2c(-c3c(Cl)cccc3Cl)noc2C(C)C)ccc1N(C)Cc1ccc(C(=O)O)cc1 [Example 5, 4-[(4-{[3-(2,6-Dichlorophenyl)-5-isopropyl-4-isoxazolyl]methoxy}-2-dimethylanilino)methyl]benzoic acid] |
| < 0.1 µM | CC(C)c1onc(-c2c(Cl)cccc2Cl)c1COc1ccc(N(C)S(=O)(=O)c2cccc(C(=O)O)c2)c(Cl)c1 [Example 47, 3-{[(2-Chloro-4-{[3-(2,6-dichlorophenyl)-5-isopropylisoxazol-4-yl]methoxy}phenyl)-(methyl)amino]sulfonyl}benzoic acid] |
